Reference: US20060141629A1, “Method and system for determining platelet-mediated clot formation” (priority 2004, published 2006)

Key:
[1] = INR (ratio of PT clotting times) in patients on coumadin; assay type: in vivo; conditions: patients receiving coumadin therapy; normal INR 0.8-1.3
[2] = test system: blood from patients receiving coumadin therapy; test: PT reagent initiated clot formation (CPA), coumadin patients; assay type: cell-based
Experimental: In this assay PT-fibrinogen reagent (Instrumentation Laboratories) was diluted 1:10 in normal saline containing 0.5% BSA to yield a 10% solution. On the upper cap of a CPA well set attached to a magnetic stirrer 1.6 μl of 1M CaCl2 and 3.8; or 4.0 μl of the diluted PT reagent were added. The stirrer assembly was placed in a CPA well containing 130 μl of whole blood and spinning at about 720 rpm started immediately. The spinning was stopped after 2 min. The well was then washed and stained as described above, and clot % surface coverage and clot average size were determined.

[3] = test system: vitamin K dependent clotting factors (II, VII, IX and X); test: Level of vitamin K dependent clotting factors on coumadin therapy; assay type: in vivo; conditions: patient on coumadin therapy, INR=3.0
[4] = test system: blood from a patient receiving heparin therapy; test: Heparin inhibition of factor Xa clot formation (CPA); assay type: cell-based
Experimental: In the following experiment bovine factor Xa (Sigma) and CaCl2 were used to initiate clot formation in whole blood. On the upper cap of a CPA well set was placed 2.2 μl of a factor Xa solution (7×10^−3 unit/ml) and 1.6 μl of 1M CaCl2. The stirrer assembly was placed in a well containing 130 μl of whole blood and spinning at about 720 rpm started immediately. The spinning was stopped after 2 min. The well was then washed and stained, and the clot % surface coverage and the clot average size were determined.

[5] = PTT of patient receiving heparin therapy; assay type: in vivo; conditions: normal 26-34 sec
[6] = test system: whole blood sample from a healthy subject; test: Titration of thrombin inhibitor hirudin with thrombin (CPA); assay type: cell-based
Experimental: The levels of thrombin inhibitory drugs such as hirudin and its analogs were determined by titrating the thrombin inhibitor in a whole blood sample with thrombin. To a whole blood sample from a healthy subject hirudin (Sigma) was add to a level of 5×10^−1 anti-thrombin Units/ml. Bovine thrombin (Sigma) (5 Units/ml or 10 Units/ml) was then added to the hirudin treated and untreated whole blood. The thrombin was placed on the upper cap of a CPA well set attached to a magnetic stirrer. The stirrer assembly was placed in a well containing 130 μl of whole blood and spinning at about 720 rpm started immediately. After two min. the spinning was stopped. As described above, the well was washed and stained, and the clot % surface coverage and clot average size determined.

[7] = test system: normal blood samples (citrated whole blood); test: Thrombin dose response of fibrin clot formation (CPA, image analysis); assay type: cell-based; conditions: FIGS. 2A-2B
Experimental: In this assay, increasing concentrations of thrombin, which promotes fibrin clot formation, were applied to normal blood samples. In particular, thrombin was placed on the tip of the rotating conical disc, in an amount yielding final concentration according to the points indicated in FIG. 3A and FIG. 3B. The conical disc was then applied in the well containing 130 μL of citrated whole blood, rotated at 720 rpm for two minutes followed by washing and staining of the well. For quantitative determination of fibrin clot formation image analysis (using Impact-R image analysis system, DiaMed, Switzerland) was performed.
Image analysis of the stained fibrin clots was performed expressing the amount of clot in terms of % of surface covered (SC, %), and the average size (AS, μm^2) of the stained clots.

[8] = factor Xa and CaCl2 added, FIG. 5D

Molecule: CC(=O)CC(c1ccccc1)c1c(O)c2ccccc2oc1=O (centres unmarked) [coumadin]
- INR [1]: 3.0
- clot formation ([2]; blood from coumadin patients, absence of clot initiator or CaCl2, FIG. 4C): no clots are formed
- clot formation ([2]; blood from coumadin treated patients (INR 3.0), PT reagent added, FIG. 4D): no clot formation was observed
- vitamin K dependent clotting factors level [3]: 25-40%

Molecule: heparin
- clot average size [4, 8]: 30
- clot formation [4, 8]: no clot formation was observed
- surface coverage [4, 8]: 3.0%
- clot average size ([4]; no factor Xa or CaCl2, FIG. 5C): 24
- surface coverage ([4]; no factor Xa or CaCl2, FIG. 5C): 8.2%
- PTT [5]: 130 s

Molecule: hirudin
- clotting ([6]; whole blood containing hirudin, thrombin 4×10^−2 Units/ml, FIG. 7B): no clotting was observed

Molecule: thrombin: Bovine thrombin (Sigma), promotes fibrin clot formation; clot initiator
- thrombin added giving sharp increase in both average size and surface coverage [7]: 0.005 IU/ml
- clotting ([6]; added thrombin 6×10^−2 Units/ml, whole blood treated with hirudin, FIG. 7D): Clotting was observed
- added thrombin concentration at which clotting began ([6]; thrombin added to the whole blood, FIG. 7C): 1×10^−2 Units/ml
